Reference: patent publication US10975037B2 (priority 2018, dated 2021)
Counter-ions that a name gives are not always drawn. Like-named read-outs stand apart in the source and are kept apart here.

Experiments:
[1] = target: human RORγt ligand binding domain (RORγt LBD) (Homo sapiens (Human), UniProt P51449); test: RORγt ThermoFluor® assay (thermal shift binding)
Experimental: This approach is applicable to a wide variety of systems, and rigorous in theoretical interpretation through quantitation of equilibrium binding constants (KD).
The shift in the melting point described as a ΔTm is proportional to the concentration and affinity of the ligand.
RORγt ThermoFluor® Assay Construct
Reference wells contained RORγt without compounds, and the assay conditions were as follows: • 0.065 mg/mL RORγt • 60 μM 1,8-ANS • 100 mM Hepes, pH 7.0 • 10 mM NaCl • 2.5 mM GSH • 0.002% Tween-20
Project compounds were arranged in a pre-dosed mother plate (Greiner Bio-one) wherein compounds are serially diluted in 100% DMSO by 1:2 from a high concentration of 10 mM over 12 columns within a series (column 12 is a reference well containing DMSO, no compound). The compounds were robotically dispensed directly into assay plates (1×=46 nL) using a Hummingbird capillary liquid handling instrument (Digilab). Following compound dispense, protein and dye in buffer was added to achieve the final assay volume of 3 μL, followed by 1 μL of silicone oil.

full-length human RORγt = full-length human RORγt (Homo sapiens (Human), UniProt P51449); test: RORγt (full-length human) reporter assay, conditions A or B, HEK293T cells; format: cell-based; conditions: for inhibition at 2 µM: 2 μM compound concentration; for IC50: RORγt (FL) Reporter Assay A or B, IC50, HEK293T cells; for inhibition at 6 µM: read-out: RORγt (FL) Reporter Assay A or B, % inhibition @ 6 μM
Sequence of full-length human RORγt (P51449 other isoform, or with tags, fused parts or gaps): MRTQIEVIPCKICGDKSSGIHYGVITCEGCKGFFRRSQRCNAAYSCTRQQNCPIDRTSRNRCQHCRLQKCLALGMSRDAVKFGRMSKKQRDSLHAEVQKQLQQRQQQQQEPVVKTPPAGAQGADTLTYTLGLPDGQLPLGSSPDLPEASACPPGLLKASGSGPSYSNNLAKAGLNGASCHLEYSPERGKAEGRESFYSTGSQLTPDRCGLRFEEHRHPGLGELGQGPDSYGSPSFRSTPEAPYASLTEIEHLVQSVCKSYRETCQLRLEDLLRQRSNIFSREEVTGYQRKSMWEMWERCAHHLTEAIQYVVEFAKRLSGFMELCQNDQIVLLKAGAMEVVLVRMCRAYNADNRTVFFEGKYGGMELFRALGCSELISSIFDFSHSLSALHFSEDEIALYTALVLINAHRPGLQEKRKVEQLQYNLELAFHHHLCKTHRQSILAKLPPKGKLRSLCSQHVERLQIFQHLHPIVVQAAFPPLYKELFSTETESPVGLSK
Experimental: RORγt (Full-Length Human) Reporter Assay:
(§1) HEK293T cells were plated at 35,000 per well in 96-well plate in medium of DMEM with 10% FBS. […] After overnight (16 to 20 hours) incubation, media were removed and cells were lysed with 50 L Glo Lysis Buffer (Promega) for 10-15 minutes followed by 10 minute incubation with 50 μL Dual Glo reagent (Promega) at room temperature. Firefly luciferase luminescence was measured using a BMG Pherastar plate reader. To each well, 50 μL Stop and Glo reagent was added and incubated for 10 minutes at room temperature. Renilla luminescence was measured using a BMG Pherastar plate reader. To calculate the effect of compounds on RORγt activity, firefly values were normalized against values of DMSO only and values of reference compound at saturating concentration, then further normalized against Renilla signals. IC50s were generated by plotting final Renilla normalized data against compound concentration and percent inhibition was calculated against DMSO control.
as §1, with “at 8750 cells” for “at 35,000”, “in 384-well” for “in 96-well”, “with 20” for “with 50”, “well, 20” for “well, 50”

[2] = read-out: ThermoFluor® Assay, Kd
[3] = HEK-293T, read-out: RORγt (FL) Reporter Assay A or B, % inhibition
[4] = HEK-293T, 1 μM compound concentration (footnote ***), read-out: RORγt (FL) Reporter Assay A or B, % inhibition
[5] = HEK-293T, 3 μM compound concentration (footnote *), read-out: RORγt (FL) Reporter Assay A or B, % inhibition

Sequence of human RORγt ligand binding domain (RORγt LBD) (P51449 other isoform, or with tags, fused parts or gaps): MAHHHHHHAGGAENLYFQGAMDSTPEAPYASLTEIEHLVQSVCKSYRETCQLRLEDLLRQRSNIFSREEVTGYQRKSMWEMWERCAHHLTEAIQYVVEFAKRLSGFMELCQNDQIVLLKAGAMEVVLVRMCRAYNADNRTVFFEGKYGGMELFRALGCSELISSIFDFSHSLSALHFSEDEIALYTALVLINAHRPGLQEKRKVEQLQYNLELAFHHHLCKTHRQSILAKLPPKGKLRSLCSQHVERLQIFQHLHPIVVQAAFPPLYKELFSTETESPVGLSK

Q: Which results are given for `CCn1nc(C(=O)NC[C@]2(O)CC[C@@H](S(C)(=O)=O)CC2)c(C)c1-c1ccc(CCC(F)(F)F)cc1OC` [Example 225, 1-Ethyl-N-(((1s,4s)-1-hydroxy-4-(methylsulfonyl)cyclohexyl)methyl)-5-(2-methoxy-4-(3,3,3-trifluoropropyl)phenyl)-4-methyl-1H-pyrazole-3-carboxamide]?
A: Kd [1, 2]: 26 nM; inhibition at 2 µM (full-length human RORγt; [3]): 76%; IC50 (full-length human RORγt): 93 nM

Q: Which Kd ([1]; ThermoFluor® Assay, Kd) does the source give for `CCn1nc(C(=O)NC[C@H]2CC[C@H](S(N)(=O)=O)CC2)c(Cl)c1-c1ccc(C[C@@H](C)C(F)(F)F)cc1OC(F)F` (single isomer, unassigned) [Example 139, 4-Chloro-5-(2-(difluoromethoxy)-4-((R*)-3,3,3-trifluoro-2-methylpropyl)phenyl)-1-ethyl-N-(((1r,4R)-4-sulfamoylcyclohexyl)methyl)-1H-pyrazole-3-carboxamide] here?
A: 0.58 nM

Q: What about the inhibition at 1 µM (full-length human RORγt; [4]) of the same compound?
A: 122%

Q: What about the IC50 (full-length human RORγt) of the same compound?
A: 2.7 nM

Q: Which Kd [1, 2] does the source give for `CCn1nc(C(=O)NC[C@]2(CO)CC[C@@H](S(C)(=O)=O)CC2)c(Cl)c1-c1ccc(CC(C)(C)C(F)(F)F)cc1OC(F)F` [Example 91, 4-Chloro-5-(2-(difluoromethoxy)-4-(3,3,3-trifluoro-2,2-dimethylpropyl)phenyl)-1-ethyl-N-(((1s*,4s*)-1-(hydroxymethyl)-4-(methylsulfonyl)cyclohexyl)methyl)-1H-pyrazole-3-carboxamide] here?
A: 0.24 nM

Q: What about the inhibition at 1 µM (full-length human RORγt; [4]) of the same compound?
A: 99%

Q: And the IC50 (full-length human RORγt)?
A: 3.7 nM

Q: What does the source list for `COc1cc(N[C@H](C)C(F)(F)F)ccc1-c1c(Cl)c(C(=O)NC[C@]2(O)CC[C@@H](S(C)(=O)=O)CC2)nn1CC(C)C` [Example 29, 4-Chloro-N-(((1s,4S)-1-hydroxy-4-(methylsulfonyl)cyclohexyl)methyl)-1-isobutyl-5-(2-methoxy-4-(((R)-1,1,1-trifluoropropan-2-yl)amino)phenyl)-1H-pyrazole-3-carboxamide]?
A: Kd [1, 2]: 8.3 nM; inhibition at 6 µM (full-length human RORγt; HEK-293T): 108%; IC50 (full-length human RORγt): 61 nM

Q: With `CCn1nc(C(=O)NC[C@]2(O)CC[C@@H](S(C)(=O)=O)CC2)c(Cl)c1-c1ccc(CCCC(F)(F)F)cc1OC` [Example 81, 4-Chloro-1-ethyl-N-(((1s,4s)-1-hydroxy-4-(methylsulfonyl)cyclohexyl)methyl)-5-(2-methoxy-4-(4,4,4-trifluorobutyl)phenyl)-1H-pyrazole-3-carboxamide] as the compound, how does the Kd [1, 2] read?
A: 5.1 nM

Q: And the inhibition at 2 µM (full-length human RORγt; [3])?
A: 89%

Q: And the IC50 (full-length human RORγt)?
A: 13 nM

Q: What does the source list for `CCn1nc(C(=O)NC[C@]2(O)CC[C@@H](S(C)(=O)=O)CC2)c(Cl)c1-c1ccc(C(O)(C(F)(F)F)C(F)(F)F)cc1OC(F)F` [Example 117, 4-Chloro-5-(2-(difluoromethoxy)-4-(1,1,1,3,3,3-hexafluoro-2-hydroxypropan-2-yl)phenyl)-1-ethyl-N-(((1s,4s)-1-hydroxy-4-(methylsulfonyl)cyclohexyl)methyl)-1H-pyrazole-3-carboxamide]?
A: Kd [1, 2]: 0.27 nM; inhibition at 3 µM (full-length human RORγt; [5]): 102%; IC50 (full-length human RORγt): 4.2 nM

Q: With `COc1cc(N[C@H](C)C(F)(F)F)ccc1-c1c(Cl)c(C(=O)NC[C@]2(O)CC[C@@H](S(C)(=O)=O)CC2)nn1C(C)(C)C` [Example 27, 1-(tert-Butyl)-4-chloro-N-(((1s,4S)-1-hydroxy-4-(methylsulfonyl)cyclohexyl)methyl)-5-(2-methoxy-4-(((R)-1,1,1-trifluoropropan-2-yl)amino)phenyl)-1H-pyrazole-3-carboxamide] as the compound, how does the Kd [1, 2] read?
A: 7.4 nM

Q: And the inhibition at 6 µM (full-length human RORγt; HEK-293T, 6 μM compound concentration)?
A: 105%

Q: And the IC50 (full-length human RORγt)?
A: 60 nM

Q: `CCn1nc(C(=O)NC[C@H]2CC[C@H](S(C)(=O)=O)CC2)c(Cl)c1-c1ccc(CCC(F)(F)F)cc1F` [Example 179, 4-Chloro-1-ethyl-5-(2-fluoro-4-(3,3,3-trifluoropropyl)phenyl)-N-(((1r,4r)-4-(methylsulfonyl)cyclohexyl)methyl)-1H-pyrazole-3-carboxamide] was tested. Which Kd [1, 2] did it give?
A: 15 nM

Q: And the inhibition at 2 µM (full-length human RORγt; [3])?
A: 52%

Q: What about the IC50 (full-length human RORγt) of the same compound?
A: 69 nM

Q: With `C[C@H](Cc1ccc(-c2c(Cl)c(C(=O)NC[C@H]3CC[C@H](S(C)(=O)=O)CC3)nn2C)c(OC(F)F)c1)C(F)(F)F` [Example 151, 4-Chloro-5-(2-(difluoromethoxy)-4-((R)-3,3,3-trifluoro-2-methylpropyl)phenyl)-1-methyl-N-(((1r,4R)-4-(methylsulfonyl)cyclohexyl)methyl)-1H-pyrazole-3-carboxamide] as the compound, how does the Kd [1, 2] read?
A: 1.6 nM

Q: What about the inhibition at 1 µM (full-length human RORγt; [3]) of the same compound?
A: 92%

Q: What about the IC50 (full-length human RORγt) of the same compound?
A: 23 nM

Q: Which results are given for `CCn1nc(C(=O)NC[C@]2(O)CC[C@@H](S(C)(=O)=O)CC2)c(Cl)c1-c1ccc(CCC(C)C)cc1OC` [Example 75, 4-Chloro-1-ethyl-N-(((1s,4s)-1-hydroxy-4-(methylsulfonyl)cyclohexyl)methyl)-5-(4-isopentyl-2-methoxyphenyl)-1H-pyrazole-3-carboxamide]?
A: Kd [1, 2]: 0.88 nM; inhibition at 2 µM (full-length human RORγt; [3]): 62%; IC50 (full-length human RORγt): 25 nM

Q: How did the Kd [1, 2] turn out when `CCn1nc(C(=O)NC[C@]2(O)CC[C@@H](S(C)(=O)=O)CC2)c(C)c1-c1ccc(CCC(F)(F)F)cc1OC(F)F` [Example 223, 5-(2-(Difluoromethoxy)-4-(3,3,3-trifluoropropyl)phenyl)-1-ethyl-N-(((1s,4s)-1-hydroxy-4-(methylsulfonyl)cyclohexyl)methyl)-4-methyl-1H-pyrazole-3-carboxamide] was run?
A: 10 nM

Q: What about the inhibition at […] (full-length human RORγt; HEK-293T, 0.33 μM compound concentration (footnote *****), read-out: RORγt (FL) Reporter Assay A or B, % inhibition) of the same compound?
A: 68%

Q: What about the IC50 (full-length human RORγt) of the same compound?
A: 2.3 nM

Q: For `CCn1nc(C(=O)NC[C@H]2CC[C@H](S(C)(=O)=O)CN2)c(Cl)c1-c1ccc(CC(C)(C)C(F)(F)F)cc1OC(F)F` (stereo in doubt) [Example 9, 4-Chloro-5-(2-(difluoromethoxy)-4-(3,3,3-trifluoro-2,2-dimethylpropyl)phenyl)-1-ethyl-N-(((2R*,5S*)-5-(methylsulfonyl)piperidin-2-yl)methyl)-1H-pyrazole-3-carboxamide hydrobromide], which Kd ([1]; ThermoFluor® Assay, Kd) is on record?
A: 1.6 nM

Q: And the inhibition at 1 µM (full-length human RORγt; [4])?
A: 104%

Q: What about the IC50 (full-length human RORγt) of the same compound?
A: 9.1 nM

Q: Which inhibition at 3 µM (full-length human RORγt; [3]) does the source give for `CCn1nc(C(=O)NC[C@]2(O)CC[C@@H](S(C)(=O)=O)CC2)c(Cl)c1-c1ccc([C@H](O)C(C)(C)C(F)(F)F)cc1OC(F)F` (single isomer, unassigned) [Example 107, 4-Chloro-5-(2-(difluoromethoxy)-4-((S*)-3,3,3-trifluoro-1-hydroxy-2,2-dimethylpropyl)phenyl)-1-ethyl-N-(((1s,4R)-1-hydroxy-4-(methylsulfonyl)cyclohexyl)methyl)-1H-pyrazole-3-carboxamide] here?
A: 104%

Q: For `CCn1nc(C(=O)NC[C@]2(O)CC[C@@H](S(C)(=O)=O)CC2)c(Cl)c1-c1ccc([C@](C)(O)CCC(F)(F)F)cc1OC(F)F` (relative stereo) [Example 103, 4-Chloro-5-(2-(difluoromethoxy)-4-((R*)-5-trifluoro-2-hydroxypentan-2-yl)phenyl)-1-ethyl-N-(((1s,4S)-1-hydroxy-4-(methylsulfonyl)cyclohexyl)methyl)-1H-pyrazole-3-carboxamide], which inhibition at 3 µM (full-length human RORγt; [5]) is on record?
A: 107%

Q: For `CCn1nc(C(=O)NC[C@]2(O)CC[C@@H](S(C)(=O)=O)CC2)c(Cl)c1-c1ccc(C[C@H](C)C(F)(F)F)cc1OC` (single isomer, unassigned) [Example 37, 4-Chloro-1-ethyl-N-(((1s,4R)-1-hydroxy-4-(methylsulfonyl)cyclohexyl)methyl)-5-(2-methoxy-4-((S*)-3,3,3-trifluoro-2-methylpropyl)phenyl)-1H-pyrazole-3-carboxamide], which inhibition at 0.67 µM (full-length human RORγt; HEK-293T, 0.67 μM compound concentration (footnote ****), read-out: RORγt (FL) Reporter Assay A or B, % inhibition) is on record?
A: 97%
